According to patent US4894460A (Pierrel S.p.A., priority 1982, dated 1990):

Key:
taenia coli = assay: Antagonistic activity to calcium in the taenia coli of guinea pigs (CaCl2-induced contractions, in vitro); assay type: cell-based, Hartley albino guinea pigs; settings: Cavia porcellus, 10 min; guinea pig taenia coli, depolarized, CaCl2 10^-3 M, 10 min contact; from maximum inhibition; read-out: Calcium antagonistic activity in vitro ED50
Description: Antagonistic Activity to Calcium in the Taenia Coli of Guinea Pigs
Hartley albino guinea pigs of average weight 450 g were used. The calcium antagonistic activity was determined stimulating the taenia coli, previously depolarized, with a single submaximal concentration of CaCl2 (10^-3 M), at intervals of 20 minutes (according to the method Naunyn Schmied. Arch. Pharmacol. 318, 235 (1982)). The products were left in contact with the preparation for 10 minutes. The ED50 were calculated from the percentage of maximum inhibition.

in vivo = settings: mouse, iv, mice, i.v. in dimethylsulfoxide, after seven days, Litchfield and Wilcoxon
Description: Intravenous Toxicity in Mice
Male CD1 mice from Charles River (Italy), weighing 25 g were used. Compounds were administered intravenously (i.v.), dissolved in dimethylsulfoxide, and the volume of administration was 0.01 ml per 10 g of body weight. The LD50 after seven days, was calculated according to the method of Litchfield and Wilcoxon (Experimental Therapeutics 96, 99 (1949)).

[1] = test system: Spontaneous Hypertensive Rats (SHR); assay: Hypotensive activity in spontaneous hypertensive rats (SHR); assay type: in vivo, Male SHR (Okamoto) rats; settings: Rattus norvegicus, po, p.o. in 0.4% carboxymethyl cellulose, systolic arterial pressure, read-out: Hypotensive activity in SHR ED^SABP -25%
Description: Hypotensive Activity in Spontaneous Hypertensive Rats (SHR)
Male SHR (Okamoto), of 70-100 days of age were used. The systolic arterial pressure (SABP) was determined by applying to the tail of the animal a pressure transducer with a sleeve connected to a BP-Recorder (W-W Electronic of Basel). The animals were previously warmed to 39° C. for a period of 15-20 minutes in a ventilated chamber.
The rats were previously trained to the registration for 1-2 days prior to the start of the experiment which consisted of a basic registration, the pharmacological treatment and then of subsequent registrations one hour and three hours after the treatment.
All the products were administered orally (p.o.), suspended in 0.4% carboxymethyl cellulose (Methocel); the volume of vehicle was 2 ml per kg.
The compounds of formula (I) were tested at three dose levels and the value of ED-25% was determined.

CC1=C(C(=O)OCCN2CCN(c3ccccc3)CC2)C(c2cccc([N+](=O)[O-])c2)C(C(=O)OCC(C)C)=C(C)N1 (stereo not drawn) [0289C, 2-(4-Phenyl)piperazinoethyl-2,6-dimethyl-4-(3-nitrophenyl)-5-isobutoxycarbonyl-1,4-dihydropyridine-3-carboxylate]
IC50 (taenia coli): 6.3 nM
LD50 at 168 h (in vivo): 12 mg/kg
ED (25%) [1]: 2.2 mg/kg

CCOC(=O)C1=C(C)NC(C)=C(C(=O)OCCN2CCN(c3ccc(F)cc3)CC2)C1c1cccc([N+](=O)[O-])c1 (stereo not drawn) [0284C]
IC50 (taenia coli): 1.3 nM
LD50 at 168 h (in vivo): 9.5 mg/kg
ED (25%) [1]: 5.3 mg/kg
